Test results as given in ChEMBL document CHEMBL5365407, “Design, synthesis and biological evaluation of nitric oxide-releasing 5-cyano-6-phenyl-2, 4-disubstituted pyrimidine derivatives” (Bioorg Med Chem Lett, 2023).
Activity calls are given as the source filed them. No cut-off for these calls is given here.

Key:
ECa-109 cell line = assay: Antiproliferative activity against human Eca-109 cells measured after 72 hrs by MTT assay; format: functional, cell-based; conditions: ECa-109, 72 h
MGC-803 [1] = assay: Induction of apoptosis in human MGC-803 cells assessed as necrotic cells at 2 uM by Annexin V-FITC/PI staining based flow cytometric analysis (reference value: 0.69%); format: functional
MGC-803 [2] = assay: cells; conditions: Homo sapiens, MGC-803, 72 h
Description: Antiproliferative activity against human MGC-803 cells measured after 72 hrs by MTT assay

MGC-803 [3] = assay: Induction of morphological changes in human MGC-803 cells assessed as nuclear condensation at 0.5 to 2 uM incubated for 48 hrs by DAPI staining based fluorescence microscopy; format: functional, cell-based; conditions: dose 0.5-2 µM
MGC-803 [4] = assay: Induction of apoptosis in human MGC-803 cells by Annexin V-FITC/PI staining based flow cytometric analysis; format: functional, cell-based; conditions: dose 0.5-2 µM
MGC-803 [5] = assay: Induction of apoptosis in human MGC-803 cells assessed as late apoptotic cells at 2 uM by Annexin V-FITC/PI staining based flow cytometric analysis (reference value: 2.14 %); format: functional
MGC-803 [6] = assay: Antiproliferative activity against human MGC-803 assessed as cell survival by MTT assay relative to control; format: functional
MGC-803 [7] = assay: Induction of reactive oxygen species generation in human MGC-803 cells by DCFH-DA staining fluorescence assay; format: functional, cell-based; conditions: dose 0.5-2 µM
MGC-803 [8] = assay: Induction of apoptosis in human MGC-803 cells assessed as early apoptotic cells at 1 uM by Annexin V-FITC/PI staining based flow cytometric analysis (reference value: 2.79%); format: functional
MGC-803 [9] = assay: Induction of cell cycle arrest in human MGC-803 cells assessed as accumulation of cells at G0/G1 phase at 1 uM incubated for 24 hrs by PI staining based flow cytometry analysis (reference value: 56.68 %); format: functional
MGC-803 [10] = assay: Induction of morphological changes in human MGC-803 cells assessed as appearance of broken cell at 0.5 to 2 uM incubated for 48 hrs by DAPI staining based fluorescence microscopy; format: functional; conditions: dose 0.5-2 µM
MGC-803 [11] = assay: Induction of apoptosis in human MGC-803 cells assessed as early apoptotic cells at 0.5 uM by Annexin V-FITC/PI staining based flow cytometric analysis (reference value: 2.79%); format: functional
MGC-803 [12] = assay: Induction of apoptosis in human MGC-803 cells assessed as necrotic cells at 1 uM by Annexin V-FITC/PI staining based flow cytometric analysis (reference value: 0.69%); format: functional
MGC-803 [13] = assay: Induction of apoptosis in human MGC-803 cells assessed as early apoptotic cells at 2 uM by Annexin V-FITC/PI staining based flow cytometric analysis (reference value: 2.79%); format: functional
MGC-803 [14] = assay: Induction of morphological changes in human MGC-803 cells assessed as nuclear shrinkage at 0.5 to 2 uM incubated for 48 hrs by DAPI staining based fluorescence microscopy; format: functional, cell-based; conditions: dose 0.5-2 µM
MGC-803 [15] = assay: Induction of cell cycle arrest in human MGC-803 cells assessed as accumulation of cells at G2/M phase at 1 uM incubated for 24 hrs by PI staining based flow cytometry analysis (reference value: 14.32 %); format: functional
MGC-803 [16] = assay: Induction of morphological changes in human MGC-803 cells assessed as appearance of dense and concentrated granules at 0.5 to 2 uM for 48 hrs by DAPI staining based fluorescence microscopy; format: functional, cell-based; conditions: dose 0.5-2 µM
MGC-803 [17] = assay: Induction of cell cycle arrest in human MGC-803 cells assessed as accumulation of cells at G0/G1 phase at 0.5 uM incubated for 24 hrs by PI staining based flow cytometry analysis (reference value: 56.68 %); format: functional
MGC-803 [18] = assay: Induction of apoptosis in human MGC-803 cells assessed as late apoptotic cells at 1 uM by Annexin V-FITC/PI staining based flow cytometric analysis (reference value: 2.14 %); format: functional
MGC-803 [19] = assay: Antiproliferative activity against human MGC-803 cells assessed as decrease in number of colonies by crystal violet staining based assay; format: functional, cell-based; conditions: dose 0.5-2 µM
MGC-803 [20] = assay: Induction of cell cycle arrest in human MGC-803 cells assessed as accumulation of cells at G2/M phase at 2 uM incubated for 24 hrs by PI staining based flow cytometry analysis (reference value: 14.32 %); format: functional
MGC-803 [21] = assay: Induction of apoptosis in human MGC-803 cells assessed as viable cells at 1 uM by Annexin V-FITC/PI staining based flow cytometric analysis (reference value: 94.4%); format: functional; conditions: read-out: Activity
MGC-803 [22] = assay: Antiproliferative activity against human MGC-803 cells assessed as reduction in colony area at 0.5 to 2 uM by crystal violet staining based assay; format: functional, cell-based; conditions: dose 0.5-2 µM
MGC-803 [23] = assay: Induction of cell cycle arrest in human MGC-803 cells assessed as accumulation of cells at S phase at 0.5 uM incubated for 24 hrs by PI staining based flow cytometry analysis (reference value: 29.00 %); format: functional
MCF7 = assay: cells; conditions: Homo sapiens, MCF7, 72 h
Description: Antiproliferative activity against human MCF7 cells measured after 72 hrs by MTT assay

MGC-803 [24] = assay: Induction of apoptosis in human MGC-803 cells assessed as viable cells at 0.5 uM by Annexin V-FITC/PI staining based flow cytometric analysis (reference value: 94.4%); format: functional; conditions: read-out: Activity
MGC-803 [25] = assay: Induction of apoptosis in human MGC-803 cells assessed as viable cells at 2 uM by Annexin V-FITC/PI staining based flow cytometric analysis (reference value: 94.4%); format: functional; conditions: read-out: Activity
[26] = Induction of NO release in phosphate buffer containing excess L-cysteine measured up to 14 hrs by Griess assay; format: functional
MGC-803 [27] = assay: Antiproliferative activity against human MGC-803 assessed as reduction in cell survival measured after 24 hrs in presence of NO scavenger hemoglobin at 1 to 20 uM by MTT assay; format: functional, cell-based
MGC-803 [28] = assay: Induction of cell cycle arrest in human MGC-803 cells assessed as accumulation of cells at G2/M phase at 0.5 uM incubated for 24 hrs by PI staining based flow cytometry analysis (reference value: 14.32 %); format: functional
MGC-803 [29] = assay: Induction of cell cycle arrest in human MGC-803 cells assessed as accumulation of cells at S phase at 1 uM incubated for 24 hrs by PI staining based flow cytometry analysis (reference value: 29.00 %); format: functional
MGC-803 [30] = assay: Induction of cell cycle arrest in human MGC-803 cells assessed as accumulation of cells at G0/G1 phase at 2 uM incubated for 24 hrs by PI staining based flow cytometry analysis (reference value: 56.68 %); format: functional
MGC-803 [31] = assay: Induction of cell cycle arrest in human MGC-803 cells assessed as accumulation of cells at S phase at 2 uM incubated for 24 hrs by PI staining based flow cytometry analysis (reference value: 29.00 %); format: functional
MGC-803 [32] = assay: Induction of apoptosis in human MGC-803 cells assessed as late apoptotic cells at 0.5 uM by Annexin V-FITC/PI staining based flow cytometric analysis (reference value: 2.14 %); format: functional
MGC-803 [33] = assay: Induction of apoptosis in human MGC-803 cells assessed as necrotic cells at 0.5 uM by Annexin V-FITC/PI staining based flow cytometric analysis (reference value: 0.69%); format: functional
PC-3 = assay: Antiproliferative activity against human PC-3 cells measured after 72 hrs by MTT assay; format: functional, cell-based; conditions: PC-3, 72 h
Bel7402/5-FU = assay: Antiproliferative activity against human BEL-7402/5-FU cell; format: functional, cell-based
[34] = target: T1, Tyrosine-protein kinase JAK3 (Homo sapiens, UniProt P52333); assay: biochemical; format: cell-based, Sf9
T1 sequence (P52333 whole entry): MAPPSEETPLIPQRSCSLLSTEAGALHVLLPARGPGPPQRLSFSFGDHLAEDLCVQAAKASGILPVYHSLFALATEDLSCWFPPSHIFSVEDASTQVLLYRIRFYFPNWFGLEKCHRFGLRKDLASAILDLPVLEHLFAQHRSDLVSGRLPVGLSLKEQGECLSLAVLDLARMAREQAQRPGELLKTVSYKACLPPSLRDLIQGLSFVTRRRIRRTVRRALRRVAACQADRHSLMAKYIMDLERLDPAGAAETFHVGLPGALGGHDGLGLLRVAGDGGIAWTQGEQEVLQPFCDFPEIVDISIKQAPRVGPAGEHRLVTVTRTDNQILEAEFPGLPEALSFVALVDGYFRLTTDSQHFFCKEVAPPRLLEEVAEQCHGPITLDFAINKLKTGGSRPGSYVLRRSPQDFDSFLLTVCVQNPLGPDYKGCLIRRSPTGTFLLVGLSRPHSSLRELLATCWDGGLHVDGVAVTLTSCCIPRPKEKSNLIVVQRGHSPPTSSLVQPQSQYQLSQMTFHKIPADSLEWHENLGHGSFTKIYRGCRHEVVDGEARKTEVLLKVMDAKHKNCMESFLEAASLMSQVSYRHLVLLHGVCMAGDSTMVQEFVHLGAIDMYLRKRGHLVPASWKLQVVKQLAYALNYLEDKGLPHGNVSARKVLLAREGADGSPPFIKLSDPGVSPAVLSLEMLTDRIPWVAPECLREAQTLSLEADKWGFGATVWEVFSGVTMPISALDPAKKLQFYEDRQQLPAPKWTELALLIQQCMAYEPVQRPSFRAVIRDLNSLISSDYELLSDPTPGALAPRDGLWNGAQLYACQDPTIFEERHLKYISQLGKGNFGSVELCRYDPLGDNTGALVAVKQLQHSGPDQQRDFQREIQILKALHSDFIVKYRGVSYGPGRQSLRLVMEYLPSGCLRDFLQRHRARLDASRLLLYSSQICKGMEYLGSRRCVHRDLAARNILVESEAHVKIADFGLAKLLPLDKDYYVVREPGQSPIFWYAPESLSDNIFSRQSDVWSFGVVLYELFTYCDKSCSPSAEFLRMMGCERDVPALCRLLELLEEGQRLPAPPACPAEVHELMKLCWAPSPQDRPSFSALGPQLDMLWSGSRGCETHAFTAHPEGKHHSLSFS
Description: Inhibition of recombinant human N-terminal GST-tagged JAK3 (781 to end residues) expressed in baculovirus infected Sf9 cells using poly (Glu,Tyr) 4:1 as substrate incubated for 60 mins in presence of ATP by ADP-Glo kinase assay

[35] = target: Lysine-specific histone demethylase 1A (Homo sapiens, UniProt O60341); assay: Inhibition of LSD1 (unknown origin)

## COc1cc(Nc2nc(SCC(=O)N3CCN(CCOc4no[n+]([O-])c4S(=O)(=O)c4ccccc4)CC3)nc(-c3ccccc3)c2C#N)cc(OC)c1OC
ECa-109 cell line
  IC50: 2210 nM
MGC-803 [1]
  Activity: 2.69%
MGC-803 [2]
  IC50: 950 nM
MGC-803 [3]
  Activity: Active
MGC-803 [4]
  Activity: Dose-Dependent Effect
MGC-803 [5]
  Activity: 28.7%
MGC-803 [6]
  Activity: 20%
MGC-803 [7]
  Activity: Dose-Dependent Effect
MGC-803 [8]
  Activity: 7.71%
MGC-803 [9]
  Activity: 65.87%
MGC-803 [10]
  Activity: Active
MGC-803 [11]
  Activity: 6.5%
MGC-803 [12]
  Activity: 3.21%
MGC-803 [13]
  Activity: 10.4%
MGC-803 [14]
  Activity: Active
MGC-803 [15]
  Activity: 14.43%
MGC-803 [16]
  Activity: Active
MGC-803 [17]
  Activity: 60.59%
MGC-803 [18]
  Activity: 24%
MGC-803 [19]
  Activity: Dose-Dependent Effect
MGC-803 [20]
  Activity: 10.4%
MGC-803 [21]
  viability at 1 µM: 65.1%
MGC-803 [22]
  Activity: Active
MGC-803 [23]
  Activity: 24.83%
MCF7
  IC50: 2030 nM
MGC-803 [24]
  viability at 0.5 µM: 75.2%
MGC-803 [25]
  viability at 2 µM: 58.3%
[26]
  Activity: Active
MGC-803 [27]
  Activity: inactive
MGC-803 [28]
  Activity: 14.58%
MGC-803 [29]
  Activity: 19.71%
MGC-803 [30]
  Activity: 74.33%
MGC-803 [31]
  Activity: 15.27%
MGC-803 [32]
  Activity: 15.1%
MGC-803 [33]
  Activity: 3.22%
PC-3
  IC50: 1140 nM

## O=C1C(NCCOc2no[n+]([O-])c2S(=O)(=O)c2ccccc2)=CC(=O)c2ncccc21
Bel7402/5-FU
  IC50: 420 nM

## N#Cc1ccccc1Nc1nc(Nc2ccc(NC(=O)CN3CCOCC3)cc2)ncc1Cl
[34]
  IC50: 20.7 nM

## COc1ccc(/C=N/NC2NC(SCC(C)C)=NC(c3ccc(OC)cc3)=C2C#N)cc1 (centres undefined)
[35]
  IC50: 956 nM
